According to patent US9623012B2, “Formulation comprising benzothiazolone compound” (priority 2013, dated 2017):
Where a name gives a salt, the structure may show the parent alone.

Legend:
[1] = Comparative solubility in H2O with pH adjustment; type: physicochemical
Protocol: The relative solubilities of the free base form and the acetate and glycolate salt forms of Compound A were analysed and the results are show in the table below. Solutions were titrated with addition of HCl or NaOH for pH adjustment. The improved aqueous solubilities of the acetate and glycolate salt forms relative to the free base form of Compound A make the acetate and glycolate salts of Compound A more suitable for subcutaneous injection or infusion.

[2] = biological target: T1, human adrenergic Alpha1A (α1A AR) (Homo sapiens, UniProt P35348); test: Ca2+ FLIPR assay in human adrenergic Alpha1A CHO-K1 cell line (Test 1); type: cell-based; details: read-out: CHO cells EC50 α1A AR
T1 sequence (P35348 1-466): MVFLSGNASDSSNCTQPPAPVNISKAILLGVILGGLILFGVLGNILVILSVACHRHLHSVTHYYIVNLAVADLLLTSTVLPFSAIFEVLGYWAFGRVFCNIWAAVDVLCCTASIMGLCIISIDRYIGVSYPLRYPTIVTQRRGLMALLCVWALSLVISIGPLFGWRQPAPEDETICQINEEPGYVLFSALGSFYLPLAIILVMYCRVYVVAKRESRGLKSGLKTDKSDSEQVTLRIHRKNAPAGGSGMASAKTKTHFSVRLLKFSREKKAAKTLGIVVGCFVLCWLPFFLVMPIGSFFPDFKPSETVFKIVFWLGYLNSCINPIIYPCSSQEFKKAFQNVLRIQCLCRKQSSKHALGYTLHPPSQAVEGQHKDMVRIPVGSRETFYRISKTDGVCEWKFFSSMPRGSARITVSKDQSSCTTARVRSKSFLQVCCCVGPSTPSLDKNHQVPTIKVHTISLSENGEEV
Protocol: Compounds acting as agonists induce a transient increase of intracellular calcium. This was recorded on the FLIPR system. A measurement of the signal baseline was first recorded every second for 2 minutes before the injection of the compounds. […] Low controls (unstimulated cells) were determined with the addition of 5 μL of assay buffer.

[3] = biological target: human β2 adrenoceptor (β2 AR) (Homo sapiens, UniProt P07550); test: cAMP response in CHO cells stably transfected with human β2 adrenoceptor (Test 1)
[4] = biological target: T2, Serotonin 5-HT2C receptor (Homo sapiens, UniProt P28335); test: Aequorin agonist assay in CHO-K1 cells expressing Serotonin 5-HT2C; type: cell-based; details: aequorin luminescence, agonist mode
T2 construct: expressed in transfected cells; host or cells: CHO-K1 cells coexpressing mitochondrial apoaequorin and Gα16
T2 sequence (P28335 33-458): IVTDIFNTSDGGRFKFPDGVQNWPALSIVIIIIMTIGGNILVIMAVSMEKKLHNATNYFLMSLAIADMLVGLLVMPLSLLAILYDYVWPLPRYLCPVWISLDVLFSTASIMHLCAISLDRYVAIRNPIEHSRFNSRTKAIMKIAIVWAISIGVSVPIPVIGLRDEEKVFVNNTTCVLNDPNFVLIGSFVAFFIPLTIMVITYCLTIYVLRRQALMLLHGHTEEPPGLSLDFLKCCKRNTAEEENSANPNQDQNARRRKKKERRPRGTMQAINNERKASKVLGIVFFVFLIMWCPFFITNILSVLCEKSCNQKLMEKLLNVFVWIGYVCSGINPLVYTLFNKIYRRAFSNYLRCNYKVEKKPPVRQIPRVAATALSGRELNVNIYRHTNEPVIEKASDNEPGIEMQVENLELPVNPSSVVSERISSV
Protocol: CHO-K1 cells coexpressing mitochondrial apoaequorin, recombinant Serotonin 5-HT2Cne and the promiscuous G protein Gα16, grown to mid-log phase in culture media without antibiotics were detached with PBS-EDTA, centrifuged and resuspended in assay buffer (DMEM/HAM's F12 with HEPES, without phenol red+0.1% BSA protease free) at a concentration of 1×10^6 cells/ml. Cells were incubated at room temperature for at least 4 h with coelenterazine h. […] For agonist testing, 50 μL of cell suspension were mixed with 50 μL of test or reference agonist in a 96-well plate. The resulting emission of light is recorded using Hamamatsu Functional Drug Screening System 6000 (FDSS 6000) luminometer. Agonist activity of test compound was expressed as a percentage of the activity of the reference agonist at its EC100 concentration.

[5] = biological target: human β1 adrenoceptor (β1 AR) (Homo sapiens, UniProt P08588); test: cAMP response in CHO cells stably transfected with human β1 adrenoceptor (Test 1)
human 5-HT2C receptor = biological target: T3, human 5-HT2C receptor (Homo sapiens, UniProt P28335); test: 3H-Mesulergine binding to hr5-HT2C CHO cell membranes; details: 3H-Mesulergine 1 nM, kind of constant not given
T3 construct: purchased Biosignal Packard, USA; host or cells: CHO cell membranes
T3 sequence (P28335 33-458): T2 sequence (P28335 33-458)
Protocol: Non-specific binding is evaluated in the presence of 1 μM Mesulergine. Fifty μL each of membrane, ligand and compound in a total volume of […] are incubated in 96-well plates for 60 min at 22° C. in a buffer containing 50 mM Tris, 0.1% ascorbic acid, 10 μM Pargyline, pH 7.7. The plates are filtrated, washed 3 times in ice-cold 50 mM Tris, dried and measured in Topcount.

Wistar Han rats = test: Heart rate in vivo in rats after s.c. bolus; details: rat, s.c. bolus up to 0.3 mg/kg
Text: Wistar Han (W-H) IGS (International Genetic Standard) rats (Crl:WI(Han)) were purchased from Charles River Laboratories. Femoral arterial and venous catheters were chronically implanted and exteriorized through a spring tether-swivel system and housed in specialized cages. Arterial catheter was connected to a pressure transducer to continuously measure pulse pressure, mean arterial pressure and heart rate, which was derived from the blood pressure signal, via a digital data acquisition system. Compounds were administered via s.c catheter implanted through the skin buttun. Values are expressed as means±SEM (n=3).

Male Wistar Han IGS rats = type: in vivo; details: rat, s.c. minipump 4 weeks; formoterol 0.003-0.03, Compound A 0.01-0.1 mg/kg/day
Protocol: Male Wistar Han IGS (International Genetic Standard) rats (Crl:WI(Han)) at the weight of 350-400 g were purchased from Charles River Laboratories. Rats were acclimated to the facility for 7 days. Animals were housed in groups of 3 animals at 25° C. with a 12:12 h light-dark cycle. They were fed a standard laboratory diet containing 18.2% protein and 3.0% fat with an energy content of 15.8 MJ/kg (NAFAG 3890, Kliba, Basel, Switzerland). Food and water were provided ad libitum. […] Pumps were filled with the solution and kept for several hours at 37° C. in PBS until surgical implantation. Rats were treated subcutaneously with Temgesic at a dose of 0.02 mg/kg with a volume of 1 ml/kg at least 30 minutes before surgery, and then the pumps filled with the solution indicated above were implanted subcutaneously into the back of the rats under anesthesia with isoflurane at a concentration of 3%. Temgesic was administered subcutaneously to the rats 24 h and 48 h after the surgery. Body weights were measured twice per week. Clips were removed 10 days after the surgery under anesthesia. Four weeks after the treatment, the rats were euthanized with CO2, and the tibialis anterior, gastrocnemius and soleus muscles, heart and brain were dissected and weighed. Brain weight was used for normalization of organ weights. Results are expressed as mean +/−SEM. […]

Rhesus monkeys = test: Heart rate in vivo in rhesus monkeys after s.c. bolus; details: rhesus monkey, s.c. bolus up to 0.03 mg/kg
Protocol: Rhesus monkeys, 24 females with body weight around 4 to 8 kg, were randomized into 4 groups of n=6. The animals were restrained on a chair up to 4 hours after single subcutaneous administration of compounds, and then returned to their pens. Heart rates were measured using a Surgivet V3304 device. Values are expressed as means±SEM (n=6).

[6] = test system: left atria from Dunkin Hartley Guinea pig; test: Left atrium contraction assay (Ricerca, Adrenergic beta1)

Sequence of human β2 adrenoceptor (β2 AR) (P07550 whole entry): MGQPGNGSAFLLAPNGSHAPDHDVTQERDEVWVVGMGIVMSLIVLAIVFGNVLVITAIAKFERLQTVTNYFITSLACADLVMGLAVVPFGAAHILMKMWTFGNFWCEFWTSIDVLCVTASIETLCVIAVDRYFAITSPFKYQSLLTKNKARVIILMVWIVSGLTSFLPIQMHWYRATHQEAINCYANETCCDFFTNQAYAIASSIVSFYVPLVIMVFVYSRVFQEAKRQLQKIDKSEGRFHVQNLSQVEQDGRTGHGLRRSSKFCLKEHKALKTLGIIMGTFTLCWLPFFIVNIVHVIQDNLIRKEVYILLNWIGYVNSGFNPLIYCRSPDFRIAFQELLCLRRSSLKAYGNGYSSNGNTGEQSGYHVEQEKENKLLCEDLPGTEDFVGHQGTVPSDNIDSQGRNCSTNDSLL
Sequence of human β1 adrenoceptor (β1 AR) (P08588 whole entry): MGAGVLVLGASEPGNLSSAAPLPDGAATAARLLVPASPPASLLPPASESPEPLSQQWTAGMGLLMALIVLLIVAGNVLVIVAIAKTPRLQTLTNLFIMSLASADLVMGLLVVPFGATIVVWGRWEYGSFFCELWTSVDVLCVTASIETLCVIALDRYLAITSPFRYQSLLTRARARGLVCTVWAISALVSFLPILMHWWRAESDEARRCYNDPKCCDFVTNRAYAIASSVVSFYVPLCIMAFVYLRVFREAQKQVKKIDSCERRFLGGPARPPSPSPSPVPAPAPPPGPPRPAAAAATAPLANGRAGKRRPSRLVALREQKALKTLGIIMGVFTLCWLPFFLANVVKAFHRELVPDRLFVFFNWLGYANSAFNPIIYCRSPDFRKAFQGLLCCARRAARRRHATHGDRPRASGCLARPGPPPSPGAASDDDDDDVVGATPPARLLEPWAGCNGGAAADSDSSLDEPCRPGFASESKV

In the case of `CCCCOc1ccc(CC(C)(C)NC[C@H](O)c2cc(O)cc3[nH]c(=O)sc23)cc1.O=C(O)CO` [Compound A glycolate salt], the “solubility in H2O, Conc” value ([1]; pH 5.1) is reported as 13100 µg/mL, the “solubility in H2O, Conc” value ([1]; pH 5.3) is reported as 6390 µg/mL and the “solubility in H2O, Conc” value ([1]; pH 5.4) is reported as 4470 µg/mL.

With `CCCCOc1ccc(CC(C)(C)NC[C@@H](O)c2cc(O)cc3[nH]c(=O)sc23)cc1` [Compound B (S)] the EC50 [2] was greater than 30000 nM, the EC50 [3] was 950 nM and the EC50 [4] was 19.7 nM. The EC50 [5] was greater than 10000 nM and the “Serotonin 5-HT2C Binding” value (human 5-HT2C receptor) was 0.8 µM.

In the case of `CCCCOc1ccc(CC(C)(C)NC[C@H](O)c2cc(O)cc3[nH]c(=O)sc23)cc1` [Compound A, (R)-7-(2-(1-(4-butoxyphenyl)-2-methylpropan-2-ylamino)-1-hydroxyethyl)-5-hydroxybenzo[d]thiazol-2(3H)-one], the heart rate increase (Wistar Han rats) is reported as “less heart rate increases compared to formoterol”, the “solubility in H2O, Conc” value ([1]; pH 7.3) is reported as less than 10 µg/mL and the “solubility in H2O, Conc” value ([1]; pH 7.8) is reported as less than 10 µg/mL. For the same molecule, the “skeletal muscle mass and heart mass increase (FIG. 1)” value (Male Wistar Han IGS rats) was “induces skeletal muscle hypertrophy with minimum impact on heart mass”, the heart rate increase (Rhesus monkeys) was “less heart rate increase compared to formoterol” and the EC50 ([6]; Cavia porcellus, guinea pig left atria, n = 2) was greater than 10000 nM. For the same molecule, the “effects on left atrium contraction” value ([6]; up to 10 μM) was “no effects” and the “Serotonin 5-HT2C Binding” value (human 5-HT2C receptor) was 11 µM.

`CCCCOc1ccc(CC(C)(C)NC[C@H](O)c2cc(O)cc3[nH]c(=O)sc23)cc1` [Compound A (R) acetate salt, (R)-7-(2-(1-(4-butoxyphenyl)-2-methylpropan-2-ylamino)-1-hydroxyethyl)-5-hydroxybenzo[d]thiazol-2(3H)-one acetate salt] showed an Emax ([3]; CHO, read-out: CHO cells Emax % β2 AR, cAMP, compared to isoprenaline) of 91%.

`CCCCOc1ccc(CC(C)(C)NCC(O)c2cc(O)cc3[nH]c(=O)sc23)cc1` (racemic) [Compound A/B] gave an EC50 [3] of 11 nM, an EC50 [4] of 25 nM and an EC50 [5] of 684 nM. The “Serotonin 5-HT2C Binding” value (human 5-HT2C receptor) was 1.7 µM.
